Data published in patent US20170348330A1, “ANTIVIRAL COMPOUND AND ANALOGUES THEREOF FOR TREATMENT OR PREVENTION OF FLAVIVIRUS DENGUE/ZIKA INFECTIONS” (Canopus BioPharma Incorporated, priority 2016, published 2017).
Values joined by “and” are separate entries in the source; they are usually repeats but may differ in a detail not shown here. Equal entries are not always repeated. Where two headings read alike, the source gives them in different places.

Assays:
[1] = cited from earlier work
[2] = laboratory animals; cited from earlier work
[3] = cited from earlier work; for mean Cmax concentrations: healthy subjects
[4] = Eplerenone PK and concentrations reported in humans; format: in vivo, human; conditions: for Cmax: human, plasma, po
Source text: Clinical data: Eplerenone PK and concentrations reported in humans:
Referring now to FIG. 5 and FIG. 6, Eplerenone Cmax concentrations achieved in normal subjects is illustrated, as well as subjects with varying degrees of renal impairment after single and multiple doses of Eplerenone given orally.
The charts illustrate the feasibility of achieving anti-viral Cmax concentrations using Eplerenone in human and show Eplerenone plasma concentration vs. time curves.
In multiple dose studies, it is shown that Eplerenone steady state concentrations may be reached within 4 days. […] This preferred embodiment may be adjusted according to the specific conditions of the human subject.

Zika virus = experiment: ZIKA anti-viral in-vitro testing in VERO cells (Naftol blue-black staining, absorbance at 450 nm); conditions: for Absorbance at 450 nm: Zika MOI 0.1, VERO cells, 72 hours, threshold 0.382, replicate wells
Experimental: ZIKA Anti-Viral In-Vitro Testing and Antiviral Assay Report:
Controls: Medium with DMSO at 1% start concentration; Zika virus for infection at 0.1 MOI; VERO cells on VP medium (serum-free).
Procedure: Antivirals were diluted as information provided to stock concentrations of 10 mM in 100% DMSO.
• 1—VERO cells in VP were inoculated in 200 μL/well at 5.0×10^4 cells/mL in 96-well plates. • 2—Incubated at 37° C. for 48 hours. • 3—With 80% confluence the test was performed as follows: culture medium was changed for 150 μL of fresh VP in columns 2 to 10. Antivirals diluted at 100 μM in VP medium were placed in the column 1 (300 μL). Serial dilutions from 1 to 10 were performed by passing 150 μL of medium (1:2). Plates were incubated at 37° C. for 2 hours. Zika virus diluted in VP medium to the final infection ration desired of MOI 0.1 in 100 μL of VP was added to wells. • 4—Plates were incubated for 72 hours and checked each 24 hours for cytotoxicity or cytopathic effect. • 5—Plates were washed and stained with Naftol blue-black. Absorbance was measured at 450 nm.
DMSO cytotoxicity Antiviral cytotoxicity Primary Threshold for virus inhibition. Absorbance above 0.382

dengue [5] = conditions: cited from earlier work
dengue [6] = conditions: by inhibiting the dengue 2′-O-methyltransferase NS5 domain; cited from earlier work
dengue [7] = conditions: mouse model; cited from earlier work

SMILES | Absorbance at 450 nm (Zika virus; 0.19 μM) | Absorbance at 450 nm (Zika virus; 0.78 μM) | Absorbance at 450 nm (Zika virus; 1.56 μM) | Absorbance at 450 nm (Zika virus; 3.12 μM) | Absorbance at 450 nm (Zika virus; 6.25 μM) | Absorbance at 450 nm (Zika virus; 12.5 μM) | Absorbance at 450 nm (Zika virus; 25 μM) | Absorbance at 450 nm (Zika virus; 50 μM) | other results
COC(=O)[C@@H]1CC2=CC(=O)CC[C@]2(C)[C@@]23O[C@@H]2C[C@@]2(C)[C@@H](CC[C@@]24CCC(=O)O4)[C@H]13 [Eplerenone, pregn-4-ene-7,21-dicarboxylic acid, 9,11-epoxy-17-hydroxy-3-oxo, γ-lactone, methyl ester (7α, 11α, 17α)] | 0.449 and 0.441 and 0.468 and 0.469 | 0.433 and 0.434 and 0.432 and 0.428 | 0.369 and 0.466 and 0.453 and 0.443 | 0.4 and 0.423 and 0.453 and 0.441 | 0.376 and 0.448 and 0.411 and 0.397 | 0.334 and 0.333 and 0.373 and 0.341 | 0.29 and 0.288 and 0.291 and 0.271 | 0.217 and 0.238 and 0.209 and 0.182 | Pregnancy category ([1]; animal reproduction studies failed to demonstrate a risk to the fetus): category B; Tolerability ([1]; human): generally well tolerated; Dose with noticeable risk of foetal abnormalities [2]: over 1000 times the recommended daily dose; mean Cmax concentrations ([3]; dose 100 mg orally): 1720 ng/mL; mean Cmax concentrations ([3]; single dose of 50 mg orally): 1173 ng/mL; Accumulation: steady state Cmax compared with single dose administration ([3]; multiple dose studies): no significant accumulation; Time to reach steady state concentrations ([3]; multiple dose studies): ≤ 4 days; Peak plasma concentrations (Cmax) ([3]; therapeutic doses of oral Eplerenone (100 mg), human): up to 1720 ng/ml; Cmax relative to in-vitro concentration of column#9 ([…]) ([4]; Cmax […] after 100 mg oral vs in-vitro […]): 10 times; Cmax ([4]; 50 mg, healthy subjects, single dose of 50 mg orally, read-out: mean Cmax concentrations, equivalent): 2.8 µM; Cmax ([4]; 100 mg, healthy subjects, dose 100 mg orally, read-out: mean Cmax concentrations, equivalent): 4.1 µM; Cmax ([4]; 100 mg, therapeutic doses of oral Eplerenone (100 mg), read-out: Peak plasma concentrations (Cmax), equivalent): ≤ 4.1 µM; In-vitro concentrations showing anti-viral activity against Zika virus (Zika virus; columns 6-10 of the report, comparable to Butantan control): 0.19 to 3.12 µM
COCCOC(=O)C1=C(C)NC(C)=C(C(=O)OC(C)C)C1c1cccc([N+](=O)[O-])c1 (centres unmarked) [Nimodipine] | 0.206 and 0.321 and 0.378 and 0.354 | 0.142 and 0.293 and 0.459 and 0.396 | 0.202 and 0.387 and 0.46 and 0.397 | 0.235 and 0.468 and 0.451 and 0.415 | 0.263 and 0.363 and 0.451 and 0.395 | 0.276 and 0.282 and 0.347 and 0.305 | 0.21 and 0.224 and 0.271 and 0.217 | 0.091 and 0.113 and 0.117 and 0.092 | 
NC(=O)c1ncn([C@@H]2O[C@H](CO)[C@@H](O)[C@H]2O)n1 [Ribavirin] |  |  |  |  |  |  |  |  | Adverse effects in dengue animal models (dengue [5]; mouse model or rhesus monkey model (species not specified)): induced anemia and thrombocytosis; Protection against dengue (dengue [5]; rhesus monkey model): did not show protection; Activity against dengue in tissue culture (dengue [6]): works against dengue in tissue culture; Protection against dengue (dengue [7]): did not show protection
CC(=O)S[C@@H]1CC2=CC(=O)CC[C@]2(C)[C@H]2CC[C@@]3(C)[C@@H](CC[C@@]34CCC(=O)O4)[C@H]12 [Spironolactone] | 0.22 and 0.2 and 0.183 and 0.095 | 0.328 and 0.23 and 0.168 and 0.063 | 0.328 and 0.318 and 0.2 and 0.069 | 0.359 and 0.317 and 0.223 and 0.06 | 0.358 and 0.307 and 0.263 and 0.097 | 0.338 and 0.342 and 0.234 and 0.092 | 0.255 and 0.257 and 0.214 and 0.076 | 0.079 and 0.082 and 0.074 and 0.047 | 
